Molecular target: T1, UL98 (CMV alkaline nuclease) (Human herpesvirus 5 strain AD169, UniProt P16789)
T1 sequence (P16789 1-584): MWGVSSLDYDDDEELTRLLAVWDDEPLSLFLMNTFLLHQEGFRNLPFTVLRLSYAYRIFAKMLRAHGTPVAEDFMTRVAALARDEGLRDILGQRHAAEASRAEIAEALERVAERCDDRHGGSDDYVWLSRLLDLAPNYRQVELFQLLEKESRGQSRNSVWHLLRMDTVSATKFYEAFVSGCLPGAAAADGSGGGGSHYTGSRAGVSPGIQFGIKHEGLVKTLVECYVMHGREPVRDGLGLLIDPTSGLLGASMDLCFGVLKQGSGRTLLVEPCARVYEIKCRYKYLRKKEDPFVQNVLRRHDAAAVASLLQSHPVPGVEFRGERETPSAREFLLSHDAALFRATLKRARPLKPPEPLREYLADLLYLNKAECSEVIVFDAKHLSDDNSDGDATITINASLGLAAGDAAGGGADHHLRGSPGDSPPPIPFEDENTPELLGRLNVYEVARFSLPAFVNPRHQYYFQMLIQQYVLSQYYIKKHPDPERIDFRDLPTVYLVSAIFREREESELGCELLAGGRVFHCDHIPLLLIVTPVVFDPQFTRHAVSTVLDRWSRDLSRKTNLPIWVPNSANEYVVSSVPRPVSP
Assay: TCA-soluble […] release from labeled E. coli duplex DNA
Assay type: biochemical

IC50 [µM] | SMILES
99 | CC(=O)Nc1ccc(Nc2cc(S(=O)(=O)O)c(N)c3c2C(=O)c2ccccc2C3=O)cc1 [acid blue 40]
4.5 ± 0.7 | Cc1cc(C)c(Nc2cc(S(=O)(=O)O)c(N)c3c2C(=O)c2ccccc2C3=O)c(C)c1 [atanyl blue PRL]
